Reference: patent US12527779B2, “Prostaglandin E2 (PGE2) EP4 receptor antagonists” (Domain Therapeutics, priority 2019, dated 2026)

Tested on: Pan02 tumor cells
Experiment: In vivo anti-tumoral activity of Example 166 in a Pan02 tumor model
Design: species or system C57BL/6 mice
Description: Pan02 tumor cells were maintained in vitro as a monolayer culture in RPM11640 medium supplemented with 10% fetal bovine serum at 37° C. in an atmosphere of 5% CO2 in air. The cells were routinely subcultured twice weekly by trypsin-EDTA treatment. The cells in an exponential growth phase were harvested and counted for tumor inoculation. Female C57BL/6 mice were inoculated subcutaneously in the right rear flank region with Pan02 tumor cells (3×10^6) in 0.1 ml of PBS for tumor development on day 0. Tumor volumes were measured thrice per week in two dimensions using a caliper, and the volume was expressed in mm^3 using the formula: “V=(L×W×W)/2”, where V is tumor volume, L is tumor length (the longest tumor dimension) and W is tumor width (the longest tumor dimension perpendicular to L). When the mean tumor size reached approximately 100 mm^3, mice were randomly allocated into groups (10 mice per group) and treated with or without the compound of Example 166 (3, 10, 30, 100 or 300 mg/kg, po, QD, 5% DMSO/95% (10% w/v solution of HP-β-CD in water) v/v) for at least 3 weeks). Animals were checked daily for morbidity and mortality. During routine monitoring, the animals were checked for any effects on tumor growth and treatments on behavior such as mobility, food and water consumption, body weight gain/loss (body weights were measured thrice per week), eye/hair matting and any other abnormalities. Dosing as well as tumor and body weight measurements were conducted in a Laminar Flow Cabinet. The body weights and tumor volumes were monitored by using StudyDirector™ software (version 3.1.399.19).

C[C@H](NC(=O)C1(N2CC[C@@H](Oc3cccc(C(F)(F)F)c3)C2)CC1)c1ccc(C(=O)O)cc1.Cl [Example 166, 4-[(1S)-1-[[1-[(3R)-3-[3-(Trifluoromethyl)phenoxy]pyrrolidin-1-yl]cyclopropane-1-carbonyl]amino]ethyl]benzoic acid, hydrochloride]
Tumor Growth Inhibition TGI (%) (3 mg/kg po QD, day 0): 0.0%
Tumor Growth Inhibition TGI (%) (3 mg/kg po QD, day 4): 8.2%
Tumor Growth Inhibition TGI (%) (3 mg/kg po QD, day 7): 2.9%
Tumor Growth Inhibition TGI (%) (3 mg/kg po QD, day 9): 2.3%
Tumor Growth Inhibition TGI (%) (3 mg/kg po QD, day 11): −8.0%
Tumor Growth Inhibition TGI (%) (3 mg/kg po QD, day 14): −5.6%
Tumor Growth Inhibition TGI (%) (3 mg/kg po QD, day 16): 10.7%
Tumor Growth Inhibition TGI (%) (3 mg/kg po QD, day 18): 9.1%
Tumor Growth Inhibition TGI (%) (3 mg/kg po QD, day 21): −1.4%
Tumor Growth Inhibition TGI (%) (10 mg/kg po QD, day 0): 0.0%
Tumor Growth Inhibition TGI (%) (10 mg/kg po QD, day 4): 14.3%
Tumor Growth Inhibition TGI (%) (10 mg/kg po QD, day 7): −2.3%
Tumor Growth Inhibition TGI (%) (10 mg/kg po QD, day 9): 0.8%
Tumor Growth Inhibition TGI (%) (10 mg/kg po QD, day 11): 2.4%
Tumor Growth Inhibition TGI (%) (10 mg/kg po QD, day 14): 11.1%
Tumor Growth Inhibition TGI (%) (10 mg/kg po QD, day 16): 21.1%
Tumor Growth Inhibition TGI (%) (10 mg/kg po QD, day 18): 22.4%
Tumor Growth Inhibition TGI (%) (10 mg/kg po QD, day 21): 16.2%
Tumor Growth Inhibition TGI (%) (30 mg/kg po QD, day 0): 0.0%
Tumor Growth Inhibition TGI (%) (30 mg/kg po QD, day 4): 17.5%
Tumor Growth Inhibition TGI (%) (30 mg/kg po QD, day 7): 19.0%
Tumor Growth Inhibition TGI (%) (30 mg/kg po QD, day 9): 16.3%
Tumor Growth Inhibition TGI (%) (30 mg/kg po QD, day 11): −8.2%
Tumor Growth Inhibition TGI (%) (30 mg/kg po QD, day 14): 5.7%
Tumor Growth Inhibition TGI (%) (30 mg/kg po QD, day 16): 9.7%
Tumor Growth Inhibition TGI (%) (30 mg/kg po QD, day 18): 13.9%
Tumor Growth Inhibition TGI (%) (30 mg/kg po QD, day 21): 7.4%
Tumor Growth Inhibition TGI (%) (100 mg/kg po QD, day 0): 0.0%
Tumor Growth Inhibition TGI (%) (100 mg/kg po QD, day 4): 17.1%
Tumor Growth Inhibition TGI (%) (100 mg/kg po QD, day 7): 21.4%
Tumor Growth Inhibition TGI (%) (100 mg/kg po QD, day 9): 20.8%
Tumor Growth Inhibition TGI (%) (100 mg/kg po QD, day 11): 23.7%
Tumor Growth Inhibition TGI (%) (100 mg/kg po QD, day 14): 44.3%
Tumor Growth Inhibition TGI (%) (100 mg/kg po QD, day 16): 42.2%
Tumor Growth Inhibition TGI (%) (100 mg/kg po QD, day 18, hydrochloride): 48.2%
Tumor Growth Inhibition TGI (%) (100 mg/kg po QD, day 21): 42.6%
Tumor Growth Inhibition TGI (%) (300 mg/kg po QD, day 0): 0.0%
Tumor Growth Inhibition TGI (%) (300 mg/kg po QD, day 4): 14.3%
Tumor Growth Inhibition TGI (%) (300 mg/kg po QD, day 7): −2.5%
Tumor Growth Inhibition TGI (%) (300 mg/kg po QD, day 9): −0.7%
Tumor Growth Inhibition TGI (%) (300 mg/kg po QD, day 11): −5.6%
Tumor Growth Inhibition TGI (%) (300 mg/kg po QD, day 14): 11.8%
Tumor Growth Inhibition TGI (%) (300 mg/kg po QD, day 16): 24.7%
Tumor Growth Inhibition TGI (%) (300 mg/kg po QD, day 18, hydrochloride): 32.9%
Tumor Growth Inhibition TGI (%) (300 mg/kg po QD, day 21): 32.8%
